Patent publication US20160067295A1, “WALNUT EXTRACTS FOR NUTRACEUTICAL APPLICATIONS” (priority 2009, published 2016)

Assays:
[1] = biological target: T1, Amyloid [A]β1-40 aggregates (Homo sapiens, UniProt P05067); experiment: Defibrillization assay: dissolution of already formed amyloid Aβ-aggregates (Thioflavin T fluorescence); format: biochemical; conditions: 12 mg PC/ml test assay for walnut extracts, 12 mg PC Soy or PS Soy/ml; FIG. 3
T1 construct: Amyloid [A] β1-40 (Sigma-Aldrich, A 1075); purchased Sigma-Aldrich A 1075
T1 sequence (P05067 672-711 limits assumed): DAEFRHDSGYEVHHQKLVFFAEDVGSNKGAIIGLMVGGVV
Procedure: In this example, the highest concentrations of the walnut extracts (12 mg PC/ml test assay for the walnut extracts, 12 mg PC Soy or PS Soy/ml) were evaluated for their ability to reverse an already formed aggregate of amyloid-β.
Defibrillization efficacy is indicative for treatment of Alzheimer disease.
Dissolution of amyloid Aβ-aggregates by ES2008-021 and ES2008-022-Defibrillization assay
In a further extension of the test system, the above samples were evaluated for their ability to reverse an already formed aggregate of amyloid-β. Defibrillization efficacy is indicative for curing of Alzheimer disease.
Dissolution of amyloid Aβ-aggregates was induced by incubation with walnut extract. At each concentration of walnut extract (0.625, 1.25, 2.5, 5.0 or 7.5 μl ES2008-022 or 0.625, 1.25, 2.5, 5.0 or 7.5 μl from a stock solution containing 125 mg ES2008-021/ml) three samples were incubated and evaluated. […]
After 3 days each sample is mixed with 2 μM ([…]) Thioflavin T and 950 μl glycine/NaOH buffer (50 mM glycine, pH=9.0). Fluorescence was measured at ex 435 nm/em 485 nm.
Subtract fluorescence intensity for the corresponding “reagent blank samples” from each “active sample”. Compare the resulting fluorescence intensity with the fluorescence intensity measured for the control sample. […]

[2] = biological target: human blood (acetyl) cholinesterase (Homo sapiens, UniProt P22303); conditions: for inhibition of acetyl cholinesterase (in words): 1 mg Phosphatidylcholine per ml test solution, FIG. 4, FIG. 5; for % activity of AchE: remaining activity within 5 minutes of incubation; for % activity of AchE / % inhibited part of activity of AchE: 1 mg/ml test solution; for % inhibited part of activity of AchE: within 5 minutes of incubation
human blood (acetyl) cholinesterase, sequence (P22303 32-617 isoform P22303-2 limits assumed): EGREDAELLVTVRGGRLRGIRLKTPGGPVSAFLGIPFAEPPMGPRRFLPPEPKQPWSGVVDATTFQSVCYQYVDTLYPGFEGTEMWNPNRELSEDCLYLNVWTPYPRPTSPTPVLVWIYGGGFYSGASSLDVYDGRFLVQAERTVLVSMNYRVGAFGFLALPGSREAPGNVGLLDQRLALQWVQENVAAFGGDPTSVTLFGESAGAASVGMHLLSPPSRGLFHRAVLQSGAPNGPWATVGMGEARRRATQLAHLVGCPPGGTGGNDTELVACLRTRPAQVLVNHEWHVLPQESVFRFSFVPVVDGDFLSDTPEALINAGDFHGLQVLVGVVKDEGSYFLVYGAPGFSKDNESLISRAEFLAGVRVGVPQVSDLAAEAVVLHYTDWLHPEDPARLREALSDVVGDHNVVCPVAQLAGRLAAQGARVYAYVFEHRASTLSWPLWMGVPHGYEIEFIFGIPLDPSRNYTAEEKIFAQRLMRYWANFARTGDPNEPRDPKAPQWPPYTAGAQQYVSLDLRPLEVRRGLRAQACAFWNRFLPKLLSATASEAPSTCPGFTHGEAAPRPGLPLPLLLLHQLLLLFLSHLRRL

Substance | defibrillization efficacy (in words) [1] | inhibition of acetyl cholinesterase (in words) [2] | % activity of AchE [2] | % inhibited part of activity of AchE [2]
phosphatidylcholine [PC Soy Bean] | less potent in defibrillization | almost inactive | 88.2% | 11.8%
phosphatidylserine [PS Soy Bean] | less potent in defibrillization | almost inactive | 94.0% | 6.0%
